Reference: article PMC10127203, “Trapoxin A Analogue as a Selective Nanomolar Inhibitor of HDAC11” (ACS Chemical Biology, 2023)
Each block holds one compound with its values, some of them ahead of it.

What was measured:
[1] = target: T1, HDAC11 (Homo sapiens, UniProt Q96DB2); set-up: method as in PMID 31264832; settings: cited from earlier work
T1 sequence (Q96DB2 1-347): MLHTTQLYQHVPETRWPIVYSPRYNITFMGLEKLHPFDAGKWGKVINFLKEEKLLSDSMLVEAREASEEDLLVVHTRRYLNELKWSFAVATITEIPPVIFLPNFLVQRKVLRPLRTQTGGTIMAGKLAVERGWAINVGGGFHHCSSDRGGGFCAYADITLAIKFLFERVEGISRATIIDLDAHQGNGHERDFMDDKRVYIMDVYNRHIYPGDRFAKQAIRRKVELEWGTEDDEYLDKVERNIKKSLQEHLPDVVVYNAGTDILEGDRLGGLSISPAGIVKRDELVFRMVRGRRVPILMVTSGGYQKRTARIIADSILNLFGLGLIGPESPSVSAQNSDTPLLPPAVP

[2] = target: T1, HDAC11; assay: HDAC11 in cell assay: defatty acylation of SHMT2 (Alk14 labeling, Western blot); format: cell-based; set-up: endogenous in cells; host or cells: HEK293T; settings: HEK293T cells, 20 μM, 3 h, 50 μM Alk14
Protocol: We treated HEK293T cells with an alkyne-tagged myristic acid analog, Alk14, along with the inhibitors (TD034, SIS17, or FT895) for 3 h. Click chemistry was performed on cell lysate with Biotin-azide, followed by Streptavidin pulldown. […] HEK293T in a six-well plate at 80% confluency was treated with 50 μM Alk14 and inhibitors at various concentrations. The cells were incubated for 3 h. The cells were harvested and lysed in 200 μL of 4% SDS lysis buffer (50 mM triethanolamine, 150 mM NaCl, 4% SDS, pH 7.4) with a 1:100 protease inhibitor cocktail and 1:1000 nuclease for 15 min. The cell lysates were then diluted with 3.8 mL of HEPES buffer (50 mM HEPES, 150 mM NaCl, 1% NP-40, pH 7.4), and then concentrated using Amicon Ultra-4 (30 kDa cutoff) for 45 min at 4000g. The retained samples were then diluted to 0.5 mL with HEPES buffer, followed by the addition of Biotin-N3 (5 μL, 5 mM in DMF), TBTA (5 μL, 2 mM in DMF), CuSO4 (5 μL, 50 mM in water), and TCEP (5 μL, 50 mM in water). The samples were shaken at 37 °C for 1 h, then diluted with 3 mL of HEPES buffer, and concentrated again using Amicon Ultra-4 (30 kDa cutoff) for 45 min at 4000g. The retained samples were then diluted to 0.5 mL with HEPES buffer, followed by the addition of 20 μg of magnetic streptavidin beads (prewashed with the HEPES buffer). […] The eluants were further analyzed by SDS-PAGE and Western blot for SHMT2.

[3] = test system: YAP1 protein level in A549 cells; assay: YAP1 protein level by Western blot in A549 cells; format: cell-based; settings: for YAP1 protein levels: A549 cells, 5 and 10 μM, 24 hr
Protocol: (§1) A549 cells were treated with TD034 at 5 and 10 μM for 24 hr. Western blot was used to check for YAP1 protein level. qRT-PCR was used to check for YAP1 downstream genes transcription (CTGF and CYR61). Total RNA was extracted using IBI Isolate Total Extraction Reagent Kit (IB47602). […] of RNA was reverse transcribed using OneScript Plus cDNA Synthesis Kit (ABM G236) according to the manufacturer’s protocol. Real-time PCR was performed using BlasTaq 2X qPCR MasterMix (ABM G892) on a QuantStudio 3 Real-Time PCR System. All qPCR reactions were performed in triplicates. The list of primers is included in the Supporting Information.

[4] = test system: YAP1 target genes CTGF and CYR61 in A549 cells; assay: mRNA level of YAP1 and YAP1 target genes (CTGF, CYR61) by qRT-PCR in A549 cells; format: cell-based; settings: for mRNA levels of YAP1 target genes CTGF and CYR61: 5 and 10 μM, 24 hr
Protocol: as §1

[5] = target: T2, HDAC6 (Homo sapiens, UniProt Q9UBN7); assay: HDAC6 enzyme activity assay (Ac-H3K9, HPLC); settings: read-out: HDAC6, % inhibition
T2 sequence (Q9UBN7 1-1215): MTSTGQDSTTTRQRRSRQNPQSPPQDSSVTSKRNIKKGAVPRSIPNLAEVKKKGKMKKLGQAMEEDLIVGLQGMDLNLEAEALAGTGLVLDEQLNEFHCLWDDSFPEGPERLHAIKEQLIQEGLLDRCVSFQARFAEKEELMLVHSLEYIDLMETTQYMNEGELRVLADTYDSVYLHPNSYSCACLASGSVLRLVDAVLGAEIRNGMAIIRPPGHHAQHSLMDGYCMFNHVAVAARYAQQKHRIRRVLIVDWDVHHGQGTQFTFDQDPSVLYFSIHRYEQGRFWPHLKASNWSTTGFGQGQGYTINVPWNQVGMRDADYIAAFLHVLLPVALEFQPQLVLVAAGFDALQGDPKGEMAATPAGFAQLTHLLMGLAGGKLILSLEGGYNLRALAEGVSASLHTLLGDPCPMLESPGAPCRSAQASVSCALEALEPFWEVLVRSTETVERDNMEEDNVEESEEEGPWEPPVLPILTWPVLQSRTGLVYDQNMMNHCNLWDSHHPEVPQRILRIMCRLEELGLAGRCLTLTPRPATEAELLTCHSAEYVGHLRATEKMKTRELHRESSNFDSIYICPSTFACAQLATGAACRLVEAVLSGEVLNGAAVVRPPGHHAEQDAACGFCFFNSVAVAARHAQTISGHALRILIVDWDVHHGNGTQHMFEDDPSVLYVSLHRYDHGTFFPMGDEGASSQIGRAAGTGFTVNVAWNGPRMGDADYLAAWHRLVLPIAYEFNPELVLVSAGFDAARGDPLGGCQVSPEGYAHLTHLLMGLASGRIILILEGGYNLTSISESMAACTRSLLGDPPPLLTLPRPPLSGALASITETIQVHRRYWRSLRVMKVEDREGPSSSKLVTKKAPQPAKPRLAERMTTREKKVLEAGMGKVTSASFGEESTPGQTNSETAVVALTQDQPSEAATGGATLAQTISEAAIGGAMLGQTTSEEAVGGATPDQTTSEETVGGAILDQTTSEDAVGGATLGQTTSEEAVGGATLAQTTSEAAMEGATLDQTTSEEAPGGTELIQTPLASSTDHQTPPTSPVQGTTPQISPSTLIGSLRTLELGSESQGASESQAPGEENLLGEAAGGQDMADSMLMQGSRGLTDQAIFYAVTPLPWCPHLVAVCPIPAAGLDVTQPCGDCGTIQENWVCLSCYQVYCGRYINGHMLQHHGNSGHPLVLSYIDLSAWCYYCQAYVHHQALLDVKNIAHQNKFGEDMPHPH

[6] = pH 8
[7] = target: T3, HDAC8 (Homo sapiens, UniProt Q9BY41); assay: HDAC8 enzyme activity assay (Ac-H3K9, HPLC); settings: read-out: HDAC8, % inhibition
T3 sequence (Q9BY41 1-377): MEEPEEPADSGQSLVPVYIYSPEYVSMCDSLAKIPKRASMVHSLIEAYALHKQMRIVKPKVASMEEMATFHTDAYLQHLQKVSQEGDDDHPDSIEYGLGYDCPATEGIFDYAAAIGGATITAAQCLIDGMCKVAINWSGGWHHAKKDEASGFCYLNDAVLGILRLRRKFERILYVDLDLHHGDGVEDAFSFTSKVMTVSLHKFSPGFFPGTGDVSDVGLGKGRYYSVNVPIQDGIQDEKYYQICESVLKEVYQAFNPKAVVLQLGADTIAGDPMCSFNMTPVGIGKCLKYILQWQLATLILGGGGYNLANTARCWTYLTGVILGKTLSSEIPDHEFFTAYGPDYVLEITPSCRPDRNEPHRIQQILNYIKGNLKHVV

[8] = target: HDAC1 (Homo sapiens, UniProt Q13547); assay: HDAC1 enzyme activity assay (Ac-H3K9, HPLC); settings: read-out: HDAC1, % inhibition
HDAC1, sequence (Q13547 whole entry): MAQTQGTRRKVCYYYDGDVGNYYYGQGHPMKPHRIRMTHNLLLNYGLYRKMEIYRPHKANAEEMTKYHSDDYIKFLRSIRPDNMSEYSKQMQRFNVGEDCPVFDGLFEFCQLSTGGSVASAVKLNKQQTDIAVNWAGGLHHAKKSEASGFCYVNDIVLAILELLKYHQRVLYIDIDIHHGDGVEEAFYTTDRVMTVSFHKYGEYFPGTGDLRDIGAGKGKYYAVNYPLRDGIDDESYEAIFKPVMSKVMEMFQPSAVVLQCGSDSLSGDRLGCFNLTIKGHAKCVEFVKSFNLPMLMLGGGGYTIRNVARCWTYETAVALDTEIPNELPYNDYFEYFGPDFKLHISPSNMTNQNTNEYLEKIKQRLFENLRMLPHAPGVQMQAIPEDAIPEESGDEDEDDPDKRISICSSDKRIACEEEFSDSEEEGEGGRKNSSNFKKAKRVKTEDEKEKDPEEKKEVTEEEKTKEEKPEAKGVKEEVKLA

[9] = target: T4, SIRT2 (Homo sapiens, UniProt Q8IXJ6); assay: SIRT2 enzyme activity assay (Ac-H3K9, NAD+, HPLC)
T4 sequence (Q8IXJ6 1-389): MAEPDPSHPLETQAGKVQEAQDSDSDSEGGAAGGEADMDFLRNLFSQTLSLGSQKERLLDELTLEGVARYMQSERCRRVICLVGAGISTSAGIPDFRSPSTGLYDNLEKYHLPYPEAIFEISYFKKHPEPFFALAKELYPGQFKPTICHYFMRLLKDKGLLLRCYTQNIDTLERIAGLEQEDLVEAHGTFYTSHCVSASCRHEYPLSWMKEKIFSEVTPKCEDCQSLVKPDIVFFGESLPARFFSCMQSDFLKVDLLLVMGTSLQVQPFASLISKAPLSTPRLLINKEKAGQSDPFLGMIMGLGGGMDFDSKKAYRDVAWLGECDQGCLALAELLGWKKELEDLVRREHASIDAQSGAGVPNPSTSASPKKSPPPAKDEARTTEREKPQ

[10] = target: T5, SIRT1 (Homo sapiens, UniProt Q96EB6); assay: SIRT1 enzyme activity assay (Ac-H3K9, NAD+, HPLC); settings: read-out: SIRT1, % inhibition
T5 sequence (Q96EB6 1-747): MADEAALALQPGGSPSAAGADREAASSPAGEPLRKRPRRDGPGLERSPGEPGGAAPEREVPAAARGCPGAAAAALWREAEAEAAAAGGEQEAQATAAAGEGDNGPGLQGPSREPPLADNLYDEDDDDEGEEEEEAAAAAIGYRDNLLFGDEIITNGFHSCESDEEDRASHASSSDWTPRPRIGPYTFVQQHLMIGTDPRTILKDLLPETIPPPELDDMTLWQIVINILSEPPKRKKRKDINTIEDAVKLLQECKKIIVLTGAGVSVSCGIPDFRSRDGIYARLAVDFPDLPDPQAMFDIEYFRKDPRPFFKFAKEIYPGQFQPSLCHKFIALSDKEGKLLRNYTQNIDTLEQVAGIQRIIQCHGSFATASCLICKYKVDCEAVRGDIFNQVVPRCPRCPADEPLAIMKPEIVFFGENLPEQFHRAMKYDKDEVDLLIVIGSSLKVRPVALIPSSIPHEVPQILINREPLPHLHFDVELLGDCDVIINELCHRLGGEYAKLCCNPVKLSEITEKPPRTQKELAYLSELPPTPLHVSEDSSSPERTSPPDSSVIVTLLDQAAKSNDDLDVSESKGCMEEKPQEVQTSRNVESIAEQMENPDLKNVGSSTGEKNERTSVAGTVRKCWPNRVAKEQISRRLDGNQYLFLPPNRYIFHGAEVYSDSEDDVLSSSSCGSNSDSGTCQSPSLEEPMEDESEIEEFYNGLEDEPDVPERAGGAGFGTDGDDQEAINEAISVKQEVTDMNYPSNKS

[11] = test system: α-tubulin, p53, and histone H3 acetylation levels; assay: Acetylation levels of α-tubulin, p53 and histone H3 by Western blot in cells; format: cell-based; settings: 3 h of treatment
Excerpt: . As a positive control, we used trichostatin A (TSA), a nonselective HDAC inhibitor against both class I and class IIb HDACs.[25] […]

[12] = target: HDAC4 (Homo sapiens, UniProt P56524); assay: HDAC4 enzyme activity assay (trifluoroacetyl-H3K9, HPLC); settings: read-out: HDAC4, % inhibition
HDAC4, sequence (P56524 whole entry): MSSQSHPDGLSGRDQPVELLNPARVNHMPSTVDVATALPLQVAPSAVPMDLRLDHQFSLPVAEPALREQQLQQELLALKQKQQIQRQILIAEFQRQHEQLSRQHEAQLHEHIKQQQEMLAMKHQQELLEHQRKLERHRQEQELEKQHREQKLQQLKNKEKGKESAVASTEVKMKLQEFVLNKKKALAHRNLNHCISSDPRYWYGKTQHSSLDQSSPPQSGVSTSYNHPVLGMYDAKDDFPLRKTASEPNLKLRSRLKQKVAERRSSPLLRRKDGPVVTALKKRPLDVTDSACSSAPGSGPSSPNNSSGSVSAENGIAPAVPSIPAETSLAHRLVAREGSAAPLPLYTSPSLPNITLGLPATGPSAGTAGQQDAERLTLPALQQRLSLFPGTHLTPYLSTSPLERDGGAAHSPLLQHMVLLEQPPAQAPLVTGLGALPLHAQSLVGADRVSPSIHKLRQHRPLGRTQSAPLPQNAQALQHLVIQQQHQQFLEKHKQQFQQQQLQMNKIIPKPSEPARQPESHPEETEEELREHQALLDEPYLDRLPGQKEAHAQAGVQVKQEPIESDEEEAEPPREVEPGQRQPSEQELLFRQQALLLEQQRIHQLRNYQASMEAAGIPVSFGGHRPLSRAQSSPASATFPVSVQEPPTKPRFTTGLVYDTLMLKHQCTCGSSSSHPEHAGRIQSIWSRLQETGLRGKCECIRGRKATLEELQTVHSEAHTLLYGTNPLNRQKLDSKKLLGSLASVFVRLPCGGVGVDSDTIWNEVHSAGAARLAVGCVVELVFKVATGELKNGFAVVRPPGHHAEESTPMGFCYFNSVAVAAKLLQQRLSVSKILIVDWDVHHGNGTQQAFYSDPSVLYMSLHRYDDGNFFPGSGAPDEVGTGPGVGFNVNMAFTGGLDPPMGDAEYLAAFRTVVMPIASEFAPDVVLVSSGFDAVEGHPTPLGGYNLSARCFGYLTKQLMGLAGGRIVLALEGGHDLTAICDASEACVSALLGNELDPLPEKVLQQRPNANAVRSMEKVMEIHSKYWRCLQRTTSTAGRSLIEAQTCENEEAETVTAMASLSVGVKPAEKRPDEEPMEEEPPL

[13] = target: T1, HDAC11; assay: HDAC11 enzyme activity assay (Myr-H3K9 peptide, HPLC); format: biochemical; set-up: made in house
Protocol: All quantified measurements were performed in triplicates. Data processing was performed using Graphpad Prism 9.5.0. Repeated measures of one-way ANOVA with Fisher’s LSD test were used to determine the P value. The dose–response data was fitted using a two-step nonlinear regression of the Morrison equation. […] HDACs and SIRTs were expressed and purified as previously described.[13] […] For HDAC1, 6, 8, and SIRT1-2, Ac-H3K9 was used as a substrate. […] The reaction was conducted for 15 min (HDAC11), 30 min (HDAC1, 4, 6, 8), and 5 min (SIRT1-2). Then, 20 μL of 0.2% TFA/acetonitrile was added to quench the reaction. The samples were analyzed by HPLC using a Chromolith HighResolution RP-18 end-capped 100 mm × 4.6 mm column (EMD Millipore). Mobile phase A was 0.1% TFA in water and mobile phase B was 0.1% TFA in acetonitrile. The total flow rate was 1 mL/min, and the gradient was 0% B (2 min), 0–60% B (7 min), 100% B (4 min), and 0% B (2 min). The relative ratio of product/substrate in each sample was compared to control sample (no inhibitor) to determine the inhibition level.

Structure (SMILES): O=C(CCCCCCC(=O)Nc1ccccc1)NO [SAHA]
inhibition of HDAC11 demyristoylation activity in vitro [1]: cannot efficiently inhibit

fatty acylation level of SHMT2 [2]: same effect
Structure (SMILES): CCCCCCCCCCCCCCCCNNC(=O)c1cccs1 [SIS17]
inhibition of HDAC11 demyristoylation activity in vitro [1]: low micromolar inhibition

Structure (SMILES): CCCCCCCCCCC[C@@H]1O[C@H]1C(=O)CCCCC[C@@H]1NC(=O)[C@H]2CCCCN2C(=O)[C@H](Cc2ccccc2)NC(=O)[C@H](Cc2ccccc2)NC1=O [TD034-(R)]
YAP1 protein levels [3]: did not observe such an effect
mRNA levels of YAP1 target genes CTGF and CYR61 [4]: did not observe such an effect

Structure (SMILES): CCCCCCCCCCC[C@H]1O[C@@H]1C(=O)CCCCC[C@@H]1NC(=O)[C@H]2CCCCN2C(=O)[C@H](Cc2ccccc2)NC(=O)[C@H](Cc2ccccc2)NC1=O [TD034]
inhibition at 1 µM [5]: 0%
inhibition at 10 µM [5]: 0%
inhibition at 25 µM [5]: 0%
stability in Tris buffer and DTT [6]: relatively stable
inhibition at 1 µM [7]: 0%
inhibition at 10 µM [7]: 0%
inhibition at 25 µM [7]: 0%
inhibition at 1 µM [8]: 0%
inhibition at 10 µM [8]: 0%
inhibition at 25 µM [8]: 0%
YAP1 protein levels [3]: significant reduction
YAP1 protein level ([3]; wild-type (WT) A549 cells): reduced
IC50 [9]: ~25 µM
inhibition at 1 µM ([9]; read-out: SIRT2, % inhibition): 9%
inhibition at 10 µM ([9]; read-out: SIRT2, % inhibition): 29%
inhibition at 25 µM ([9]; read-out: SIRT2, % inhibition): 54%
inhibition at 1 µM [10]: 0%
inhibition at 10 µM [10]: 0%
inhibition at 25 µM [10]: 0%
level of acetylated α-tubulin (HDAC6 and SIRT2 target) [11]: did not have such an effect
levels of acetylated histone H3 and acetylated p53 (class I HDACs and SIRT1 target) [11]: did not have such an effect
inhibition at 1 µM [12]: 0%
inhibition at 10 µM [12]: 0%
inhibition at 25 µM [12]: 0%
YAP1 mRNA level [4]: not affected
mRNA levels of YAP1 target genes CTGF and CYR61 [4]: decrease

Structure (SMILES): CCCCCCCCCCC1(C(=O)CCCCC[C@@H]2NC(=O)[C@H]3CCCCN3C(=O)[C@H](Cc3ccccc3)NC(=O)[C@H](Cc3ccccc3)NC2=O)CO1 (stereo partly shown) [TD036]
HDAC11 inhibition (in words) [13]: abolished HDAC11 inhibition

Structure (SMILES): CC(/C=C/C(=O)NO)=C\[C@@H](C)C(=O)c1ccc(N(C)C)cc1 [TSA, trichostatin A, reference compound]
level of acetylated α-tubulin (HDAC6 and SIRT2 target) [11]: elevated level
levels of acetylated histone H3 and acetylated p53 (class I HDACs and SIRT1 target) [11]: increased levels
